According to US20110105436A1, “HETEROARYL COMPOUNDS, COMPOSITIONS, AND METHODS OF USE IN CANCER TREATMENT” (AUCKLAND UNISERVICES LIMITED, priority 2008, published 2011):

Legend:
[1] = tested on: RCC4 cells; assay: XTT assay in VHL-deficient RCC4 cells; type: cell-based
Outline: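 RCC4 cells with and without VHL seeded at 5000/well, then exposed next day to serially diluted compound (DMSO vehicle) for four days. Viability read by XTT (0.3 mg/ml) with PMS, 1-2 h at 37° C, absorbance at 450 nm.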

[2] = tested on: SN12C tumors; assay: Tumor growth of SN12C cells (wild-type VHL) in scid mice; type: in vivo; conditions: daily intraperitoneal treatment, FIG. 1E
Protocol: (§1) In vivo studies. 2−3×10^6 SN12C and SN12C-VHL shRNA cells were injected in male scid mice 4-6 weeks old. When tumor volume reached 150 mm^3, mice were randomized into vehicle control group or STF-62247 treatment group. Mice were treated every day with […] of STF-62247 intraperitoneally. Tumor growth was measured every 2-3 days after the drug treatment was started.
(§2) A. RCC4 and RCC4/VHL cells were labeled with EYFP and the effect of STF-62247 was monitored by fluorescence in each cell type separately. Cells are pseudocolored. B. Clonogenic assay in RCC4, RCC4/VHL, SN12C, SN12C-VHL shRNA cells in the presence of STF-62247 (0-30 μM). Each point of the cell survival is calculated by the average of three different experiments in triplicate as the percent of treated on untreated plate. The error bars represented the standard error of the mean (SEM). C. Upper Panel, clonogenic assay in RCC4 infected with HIF-1α or HIF-2α shRNA by retroviral infection in presence of drug in same conditions described above. Bottom panel, HIF-1α or HIF-2α protein expression evaluated by western blot in RCC4 cells with HIF-1α or HIF-2α shRNA. Tubulin is used as loading control. […] Tumor volume was measured every 2-3 days and data are represented in fold. Five tumors in each condition were analyzed where * p<0.05, **p<0.01 and ***p<0.005.

[3] = tested on: RCC4 and RCC4/VHL cells; assay: Apoptosis by Hoechst, Annexin V staining and caspase-3; type: cell-based; conditions: in vitro, VHL-deficient cells, 1.25 μM; confirmed by caspase-3 in tumor sections
Protocol: B. XTT assay in RCC4 and RCC4/VHL in presence of STF-62247 (0-40 μM). Each point of the cell survival is calculated by the average of three different experiments in duplicate as the percent of treated on untreated plate. The error bars are represented as the standard error of the mean (SEM) C. qRT-PCR for Glutl, VEGF, PDF and PGK in RCC4 cells with or without HIF-1a, HIF-2a shRNA and in RCC4/VHL. D. Hoescht staining in RCC4 and RCC4/VHL cells with 1.25 μM of STF-62247 for 2 days. Camptothecin was used as positive control E. FACS analysis for apoptosis after an annexin V-FITC staining in presence or absence of propidium iodine (PI) in cells after a treatment in same conditions than in C. F. Immunoblot for active caspase-3 in RCC4 and RCC4/VHL following treatment with 1.25 μM of STF-62247 for 24 hours. Staurosporine was used as positive control (0.2 μM for 24 hours). G,H. Immunostaining of caspase-3 and Ki67 respectively in SN12C and SN12C+shVHL tumor samples untreated or treated with 30 μM of STF-62247.1. Immunoblot for p53 and SerlS phospho-p53 in RCC4 and RCC4/VHL cells after a treatment with 1.25 μM of STF-62247 or doxorubicin for 24 hours.

[4] = tested on: SN12C-VHL shRNA tumors; assay: Tumor growth of SN12C-VHL shRNA cells in scid mice; type: in vivo; conditions: VHL-deficient tumors, daily intraperitoneal treatment, FIG. 1E
Protocol: as §1, §2

[5] = tested on: RCC4, RCC4/VHL, SN12C and SN12C-VHL shRNA cells; assay: Acidic vesicle organelles with acridine orange (FACS); type: cell-based; conditions: 1.25 μM, VHL-deficient versus wild-type VHL cells
Protocol: Quantification of Acidic Vesicle Organelles with Acridine Orange. In acridine orange-stained cells, the cytoplasm and nucleus are bright green and dim red, whereas acidic compartments are bright red. The intensity of the red fluorescence is proportional to the degree of acidity. Following 20 hours of treatment with STF-62247 or analogs, cells were stained with 1 μg/ml of acridine orange for 15 min. Cells were trypsinized and then analyzed by flow cytometry using FACScan cytometer and CellQuest software.
A. VHL-deficient RCC4 and wild-type VHL were incubated in presence of 10 μM LY294002, or 1 μg/mlBrefeldin A with 1.25 μM of STF-62247 for 20 hrs and the presence of vacuoles was examined under light microscopy. B,C. LC3 processing was evaluated by Western blot after the treatment with Brefeldin A or LY294002 in presence or absence of STF-62247 as described above. Tubulin was used as loading control. D. Cells were treated with 1.25 μM of STF-62247 with or without 2 mM of 3-MA, 1 μg/ml of Brefeldin A for 20 hrs. For the last 15 min, acidic components were stained with 1 μg/ml of acridine orange and visualized under fluorescence microscope. […] F. Quantification of the FACS analysis. The data are calculated as the average of three different experiments as relative units of treated over untreated cells. The error bars are represented as the standard error of the mean (SEM).
A. RCC4 and RCC4/VHL were treated with 1.25 μM of each 19 analogs for 20 hours and the presence of vacuoles was examined under light microscopy. B. Western blot for LC3 after treatment with each compound. Tubulin was used as loading control. Ratio is the relative from the IC50 in RCC4/VHL cells/IC50 in RCC4 cells. C. Acidic vesicle organelles (AVO) measured by FACS analysis in cells treated with 1.25 μM of STF-62247 or with compounds 21, 15, 25, 47, and 53 and stained with acridine orange.

For Cc1cccc(Nc2nc(-c3ccncc3)cs2)c1 [Compound 5, N-(3-Methylphenyl)-4-(4-pyridinyl)-1,3-thiazol-2-amine], which IC50 ([1]; Homo sapiens, 96 h, Table 1, XTT assay, VHL-deficient RCC4 cells, four days) is on record?
Its IC50 is 2100 nM.

What about the “viability in a short term assay” value ([1]; XTT, 0-40 μM, FIG. 7B) of the same molecule?
The value was “decreases the viability of VHL-deficient cells in a short term assay”.

What about the tumor growth [2] of the same molecule?
Its tumor growth is “did not have any effect on the growth of SN12C tumor cells that have wild-type VHL”.

And the induction of apoptosis [3]?
Its induction of apoptosis is “did not induce apoptosis”.

And the tumor growth [4]?
The tumor growth was “significantly reduced tumor growth in VHL-deficient cells”.

What about the “acridine orange staining / amount of AVOs” value [5] of the same molecule?
Its value is “significantly increased in VHL-deficient RCC4 cells compared to their wild-type VHL counterparts”.
